Where a SMILES comes first, the peptide text is derived from it. Bridges are numbered along the chain shown (N, C = ends). [ ]: non-standard residue; d: D form. The star is where a group is joined. Phe(3-COOH) = N[C@@H](Cc1cccc(C(=O)O)c1)C(=O)O; Phe(4-COOH) = N[C@@H](Cc1ccc(C(=O)O)cc1)C(=O)O; Bip = N[C@@H](Cc1ccc(-c2ccccc2)cc1)C(=O)O; Phe(3-Me) = Cc1cccc(C[C@H](N)C(=O)O)c1; Cha = N[C@@H](CC1CCCCC1)C(=O)O; Cit = NC(=O)NCCC[C@H](N)C(=O)O; Hpra = C#CCC[C@H](N)C(=O)O; dDab = NCC[C@@H](N)C(=O)O; Carboxymethyl = O=C(O)C*; Orn = NCCC[C@H](N)C(=O)O; Pra = C#CC[C@H](N)C(=O)O; dDap = NC[C@@H](N)C(=O)O; Dab = NCC[C@H](N)C(=O)O; Dap = NC[C@H](N)C(=O)O; X9 = c1cn(CCCN*)cn1
biological target: T1, human PD-1 / PD-L1-Ig binding on Jurkat cell line over-expressing human PD-1 (Jurkat-PD-1) (Homo sapiens, UniProt Q15116); assay: Jurkat-PD-1 Cell Binding High-Content Screening Assay (CBA); format: cell-based; conditions: Jurkat-PD-1 cells, PE-labeled PD-L1-Ig 20 nM final; read-out: Jurkat HPD1_PDL1 IC50
T1 construct: expressed in transfected cells; host or cells: Jurkat
In short: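 Binding of fluorescent PD-L1-Ig (phycoerythrin linked via the Ig tag, 20 nM final) to PD-1-overexpressing Jurkat cells was imaged after a 2 h, 37° C compound pretreatment and 1 hour ligand incubation.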

T1 sequence (Q15116 25-288): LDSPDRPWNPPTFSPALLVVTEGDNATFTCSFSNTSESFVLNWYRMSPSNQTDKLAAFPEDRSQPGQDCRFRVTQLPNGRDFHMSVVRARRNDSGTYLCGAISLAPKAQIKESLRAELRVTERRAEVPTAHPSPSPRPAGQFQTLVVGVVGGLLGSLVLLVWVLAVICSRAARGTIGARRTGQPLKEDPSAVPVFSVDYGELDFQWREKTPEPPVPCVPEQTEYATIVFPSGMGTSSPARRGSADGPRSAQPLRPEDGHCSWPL

SMILES	IC50
CC(C)C[C@@H]1NC(=O)[C@H](Cc2c[nH]c3ccccc23)NC(=O)[C@H](CC(=O)O)NC(=O)[C@H](Cc2ccc(O)cc2)NC(=O)[C@H](Cc2ccccc2)NC(=O)CSC[C@@H](C(=O)N[C@@H](C)C(N)=O)NC(=O)[C@H](CO)NC(=O)[C@H](C(C)C)NC(=O)[C@H](CC(C)C)NC(=O)[C@H](CC(N)=O)NC(=O)[C@@H](C)NC(=O)[C@@H](CN)NC(=O)[C@H](C(C)C)NC(=O)[C@H](Cc2ccc(-c3ccccc3)cc2)NC1=O [Compound 2002] ({CH2CO}-FYDWL[Bip]V[dDap][dA]NLVSCA-NH2; thioether N-14)	54.1 nM
CC(C)C[C@@H]1NC(=O)[C@H](Cc2c[nH]c3ccccc23)NC(=O)[C@H](CC(=O)O)NC(=O)[C@H](Cc2ccc(O)cc2)NC(=O)[C@H](Cc2ccccc2)NC(=O)CSC[C@@H](C(=O)N[C@@H](C)C(N)=O)NC(=O)[C@H](CO)NC(=O)[C@H](C(C)C)NC(=O)[C@H](CC(C)C)NC(=O)[C@H](CC(N)=O)NC(=O)[C@@H](C)NC(=O)[C@@H](CCN)NC(=O)[C@H](C(C)C)NC(=O)[C@H](Cc2ccc(-c3ccccc3)cc2)NC1=O [Compound 2003] ({CH2CO}-FYDWL[Bip]V[dDab][dA]NLVSCA-NH2; thioether N-14)	35 nM
Cc1cccc(C[C@@H]2NC(=O)[C@H](CC(=O)O)NC(=O)[C@H](Cc3ccc(OCC(=O)O)cc3)NC(=O)[C@H](CN)NC(=O)CSC[C@@H](C(=O)N[C@@H](C)C(=O)NCc3cnc(C)cn3)NC(=O)[C@H]([C@@H](C)O)NC(=O)[C@H](C(C)C)NC(=O)[C@H](CC3CCCCC3)NC(=O)[C@H](CCN)NC(=O)[C@@H](CC(C)C)NC(=O)[C@H](CCCN)NC(=O)[C@H](CCCNC(N)=O)NC(=O)[C@H](Cc3ccc(-c4ccccc4)cc3)NC(=O)[C@H](C(C)C)NC2=O)c1 [Compound 2006]	14.8 nM
CCNC(=O)[C@H](CCN)NC(=O)[C@@H]1CSCC(=O)N[C@@H](CN)C(=O)N[C@@H](Cc2ccc(OCC(=O)O)cc2)C(=O)N[C@@H](CC(=O)O)C(=O)N[C@@H](Cc2cccc(C)c2)C(=O)N[C@@H](C(C)C)C(=O)N[C@@H](Cc2ccc(-c3ccccc3)cc2)C(=O)N[C@@H](CCCNC(N)=O)C(=O)N[C@@H](CCCN)C(=O)N[C@H](CC(C)C)C(=O)N[C@@H](CCN)C(=O)N[C@@H](CC2CCCCC2)C(=O)N[C@@H](C(C)C)C(=O)N[C@@H]([C@@H](C)O)C(=O)N1 [Compound 2009] ({CH2CO}-[Dap]Y(Carboxymethyl)D[Phe(3-Me)]V[Bip][Cit][Orn][dL][Dab][Cha]VTC[Dab]-NHEt; thioether N-14)	5.8 nM
Cc1cccc(C[C@@H]2NC(=O)[C@H](CC(=O)O)NC(=O)[C@H](Cc3ccc(OCC(=O)O)cc3)NC(=O)[C@H](CN)NC(=O)CSC[C@@H](C(=O)N[C@@H](CCN)C(N)=O)NC(=O)[C@H]([C@@H](C)O)NC(=O)[C@H](C(C)C)NC(=O)[C@H](CC3CCCCC3)NC(=O)[C@H](CCN)NC(=O)[C@@H](CC(C)C)NC(=O)[C@H](CCCN)NC(=O)[C@H](CCCNC(N)=O)NC(=O)[C@H](Cc3ccc(-c4ccccc4)cc3)NC(=O)[C@H](C(C)C)NC2=O)c1 [Compound 2010] ({CH2CO}-[Dap]Y(Carboxymethyl)D[Phe(3-Me)]V[Bip][Cit][Orn][dL][Dab][Cha]VTC[Dab]-NH2; thioether N-14)	10.3 nM
Cc1cccc(C[C@@H]2NC(=O)[C@H](CC(=O)O)NC(=O)[C@H](Cc3ccc(OCC(=O)O)cc3)NC(=O)[C@H](CN)NC(=O)CSC[C@@H](C(=O)N[C@@H](CCCN)C(N)=O)NC(=O)[C@H]([C@@H](C)O)NC(=O)[C@H](C(C)C)NC(=O)[C@H](CC3CCCCC3)NC(=O)[C@H](CCN)NC(=O)[C@@H](CC(C)C)NC(=O)[C@H](CCCN)NC(=O)[C@H](CCCNC(N)=O)NC(=O)[C@H](Cc3ccc(-c4ccccc4)cc3)NC(=O)[C@H](C(C)C)NC2=O)c1 [Compound 2011] ({CH2CO}-[Dap]Y(Carboxymethyl)D[Phe(3-Me)]V[Bip][Cit][Orn][dL][Dab][Cha]VTC[Orn]-NH2; thioether N-14)	11.9 nM
C#CCC[C@@H]1NC(=O)[C@H](CC2CCCCC2)NC(=O)[C@H](CCN)NC(=O)[C@@H](CC(C)C)NC(=O)[C@H](CCCN)NC(=O)[C@H](C(C)C)NC(=O)[C@H](Cc2ccc(-c3ccccc3)cc2)NC(=O)[C@H](C(C)C)NC(=O)[C@H](Cc2cccc(C)c2)NC(=O)[C@H](CC(=O)O)NC(=O)[C@H](Cc2ccc(OCC(=O)O)cc2)NC(=O)[C@H](CN)NC(=O)CSC[C@@H](C(N)=O)NC(=O)[C@H]([C@@H](C)O)NC1=O [Compound 2012] ({CH2CO}-[Dap]Y(Carboxymethyl)D[Phe(3-Me)]V[Bip]V[Orn][dL][Dab][Cha][Hpra]TC-NH2; thioether N-14)	15.8 nM
C#CC[C@@H]1NC(=O)[C@H](CC2CCCCC2)NC(=O)[C@H](CCN)NC(=O)[C@@H](CC(C)C)NC(=O)[C@H](CCCN)NC(=O)[C@H](C(C)C)NC(=O)[C@H](Cc2ccc(-c3ccccc3)cc2)NC(=O)[C@H](C(C)C)NC(=O)[C@H](Cc2cccc(C)c2)NC(=O)[C@H](CC(=O)O)NC(=O)[C@H](Cc2ccc(OCC(=O)O)cc2)NC(=O)[C@H](CN)NC(=O)CSC[C@@H](C(N)=O)NC(=O)[C@H]([C@@H](C)O)NC1=O [Compound 2013] ({CH2CO}-[Dap]Y(Carboxymethyl)D[Phe(3-Me)]V[Bip]V[Orn][dL][Dab][Cha][Pra]TC-NH2; thioether N-14)	21.2 nM
CC(C)C[C@@H]1NC(=O)[C@H](Cc2c[nH]c3ccccc23)NC(=O)[C@H](CC(=O)O)NC(=O)[C@H](Cc2ccc(C(=O)O)cc2)NC(=O)[C@H](Cc2cccc(C(=O)O)c2)NC(=O)CSC[C@@H](C(=O)NCC(N)=O)NC(=O)[C@H](CO)NC(=O)[C@H](C(C)C)NC(=O)[C@H](CC2CCCCC2)NC(=O)[C@H](CCN)NC(=O)[C@@H](CC(C)C)NC(=O)[C@H](CCCN)NC(=O)[C@H](C(C)C)NC(=O)[C@H](Cc2ccc(-c3ccccc3)cc2)NC1=O [Compound 2014] ({CH2CO}-[Phe(3-COOH)][Phe(4-COOH)]DWL[Bip]V[Orn][dL][Dab][Cha]VSCG-NH2; thioether N-14)	17.2 nM
CCNC(=O)[C@H](C)NC(=O)[C@@H]1CSCC(=O)N[C@@H](CN)C(=O)N[C@@H](Cc2ccc(OCC(=O)O)cc2)C(=O)N[C@@H](CC(=O)O)C(=O)N[C@@H](Cc2cccc(C)c2)C(=O)N[C@@H](C(C)C)C(=O)N[C@@H](Cc2ccc(-c3ccccc3)cc2)C(=O)N[C@@H](CCCNC(N)=O)C(=O)N[C@@H](CCCN)C(=O)N[C@H](CC(C)C)C(=O)N[C@@H](CCN)C(=O)N[C@@H](CC2CCCCC2)C(=O)N[C@@H](C(C)C)C(=O)N[C@@H](CN)C(=O)N1 [Compound 2015] ({CH2CO}-[Dap]Y(Carboxymethyl)D[Phe(3-Me)]V[Bip][Cit][Orn][dL][Dab][Cha]V[Dap]CA-NHEt; thioether N-14)	10.5 nM

The remaining lines, values ahead:

IC50	SMILES
42.1 nM	CCNC(=O)[C@H](C)NC(=O)[C@@H]1CSCC(=O)N[C@@H](Cc2ccncc2)C(=O)N[C@@H](Cc2ccc(C(=O)O)cc2)C(=O)N[C@@H](CC(=O)O)C(=O)N[C@@H](Cc2cccc(C)c2)C(=O)N[C@@H](C(C)C)C(=O)N[C@@H](Cc2ccc(-c3ccccc3)cc2)C(=O)N[C@@H]([C@@H](C)CC)C(=O)N[C@@H](CCCN)C(=O)N[C@H](CC(C)C)C(=O)N[C@@H](CCN)C(=O)N[C@@H](CC2CCCCC2)C(=O)N[C@@H](C(C)C)C(=O)N[C@@H]([C@@H](C)O)C(=O)N1 [Compound 2004]
5.1 nM	Cc1cccc(C[C@@H]2NC(=O)[C@H](CC(=O)O)NC(=O)[C@H](Cc3ccc(C(=O)O)cc3)NC(=O)[C@H](CN)NC(=O)CSC[C@@H](C(=O)N[C@@H](C)C(=O)NCCCn3ccnc3)NC(=O)[C@H]([C@@H](C)O)NC(=O)[C@H](C(C)C)NC(=O)[C@H](CC(C)C)NC(=O)[C@H](CCN)NC(=O)[C@@H](CC(C)C)NC(=O)[C@H](CCCN)NC(=O)[C@H](C(C)C)NC(=O)[C@H](Cc3ccc(-c4ccccc4)cc3)NC(=O)[C@H](C(C)C)NC2=O)c1 [Compound 2005] ({CH2CO}-[Dap][Phe(4-COOH)]D[Phe(3-Me)]V[Bip]V[Orn][dL][Dab]LVTCA-X9; thioether N-14)
24.3 nM	CC[C@H](C)[C@@H]1NC(=O)[C@H](Cc2ccc(-c3ccccc3)cc2)NC(=O)[C@H](C(C)C)NC(=O)[C@H](Cc2cccc(C)c2)NC(=O)[C@H](CC(=O)O)NC(=O)[C@H](Cc2ccc(C(=O)O)cc2)NC(=O)[C@H](Cc2ccncc2)NC(=O)CSC[C@@H](C(=O)N[C@@H](CCN)C(N)=O)NC(=O)[C@H]([C@@H](C)O)NC(=O)[C@H](C(C)C)NC(=O)[C@H](CC2CCCCC2)NC(=O)[C@H](CCN)NC(=O)[C@@H](CC(C)C)NC(=O)[C@H](CCCN)NC1=O [Compound 2007]
19.9 nM	Cc1cccc(C[C@@H]2NC(=O)[C@H](CC(=O)O)NC(=O)[C@H](Cc3ccc(C(=O)O)cc3)NC(=O)[C@H](CN)NC(=O)CSC[C@@H](C(=O)N[C@@H](CCN)C(N)=O)NC(=O)[C@H]([C@@H](C)O)NC(=O)[C@H](C(C)C)NC(=O)[C@H](CC(C)C)NC(=O)[C@H](CCN)NC(=O)[C@@H](CC(C)C)NC(=O)[C@H](CCCN)NC(=O)[C@H](C(C)C)NC(=O)[C@H](Cc3ccc(-c4ccccc4)cc3)NC(=O)[C@H](C(C)C)NC2=O)c1 [Compound 2008] ({CH2CO}-[Dap][Phe(4-COOH)]D[Phe(3-Me)]V[Bip]V[Orn][dL][Dab]LVTC[Dab]-NH2; thioether N-14)
11.6 nM	C#CC[C@H](NC(=O)[C@H](CCCN)NC(=O)[C@@H]1CSCC(=O)N[C@@H](CN)C(=O)N[C@@H](Cc2ccc(OCC(=O)O)cc2)C(=O)N[C@@H](CC(=O)O)C(=O)N[C@@H](Cc2cccc(C)c2)C(=O)N[C@@H](C(C)C)C(=O)N[C@@H](Cc2ccc(-c3ccccc3)cc2)C(=O)N[C@@H](C(C)C)C(=O)N[C@@H](CCCN)C(=O)N[C@H](CC(C)C)C(=O)N[C@@H](CCN)C(=O)N[C@@H](CC2CCCCC2)C(=O)N[C@@H](C(C)C)C(=O)N[C@@H]([C@@H](C)O)C(=O)N1)C(N)=O [Compound 2017] ({CH2CO}-[Dap]Y(Carboxymethyl)D[Phe(3-Me)]V[Bip]V[Orn][dL][Dab][Cha]VTC[Orn][Pra]-NH2; thioether N-14)
